The values that follow come from publication PMC8762706, “Design of Coibamide A Mimetics with Improved Cellular Bioactivity” (ACS Medicinal Chemistry Letters, 2021).

This assay relates to A549 cells. The assay is described as follows: Growth inhibition assay (MTS) in A549 cells. It counts as cell-based. The settings on record: for IC50: read-out: IC50 (concentration for 50% growth inhibition of A549 cells), MTS assay, 72 h treatment, 0.5% DMSO, absorbance 490 nm, n = 3. Here is the method:
Growth Inhibition AssayS3
A549 cells were cultured in Dulbecco’s modified Eagle’s medium (DMEM; Sigma) supplemented with 10% (v/v) fetal bovine serum at 37 °C in a 5% CO2-incubator. Growth inhibition assays using A549 cells were performed in 96-well plates (BD Falcon). A549 cells were seeded at 1000 cells/well in 90 μL of culture media, respectively, and were cultured for 24 h. Chemical compounds in DMSO were diluted 50-fold with the culture medium in advance. 30 μL of the chemical diluents were added.
The final volume of DMSO in the medium was equal to 0.5% (v/v). The cells under chemical treatment were incubated for a further 72 h. The wells in the plates were washed twice with the cultured medium without phenol-red. After 1-hour incubation with 100 μL of the medium, the cell culture in each well was supplemented with 20 μL of the MTS reagent (Promega), followed by incubation for additional 40 min. Absorbance at 490 nm of each well was measured using a Wallac 1420 ARVO SX multilabel counter (Perkin Elmer). Three experiments were performed per condition and the averages of inhibition rates in each condition were evaluated to determine IC50 values using the GraphPad Prism software.

Where a SMILES comes first, the peptide text is derived from it. Bridges are numbered along the chain shown (N, C = ends). [ ]: non-standard residue; d: D form. The star is where a group is joined. NMe2Val = CC(C)[C@@H](C(=O)*)N(C)C; NMeLys(Me) = CNCCCC[C@H](NC)C(=O)O; NMeI = CC[C@H](C)[C@H](NC)C(=O)O; Lys(Me) = CNCCCC[C@H](N)C(=O)O; NMeL = CN[C@@H](CC(C)C)C(=O)O; NMeOrn = CN[C@@H](CCCN)C(=O)O; dNMeOrn = CN[C@H](CCCN)C(=O)O; NMeK = CN[C@@H](CCCCN)C(=O)O; dNMeK = CN[C@H](CCCCN)C(=O)O; dHiv = CC(C)[C@@H](O)C(=O)O; NMeA = CN[C@@H](C)C(=O)O

With `CC[C@H](C)[C@H]1C(=O)N[C@@H](C)C(=O)N(C)[C@@H](CC(C)C)C(=O)N[C@@H](Cc2ccc(OC)cc2)C(=O)N(C)CCCC[C@H](N(C)C(=O)[C@H](CC(C)C)N(C)C(=O)[C@H](C)N(C)C(=O)[C@H](OC(=O)[C@H](C(C)C)N(C)C)C(C)C)C(=O)N(C)[C@@H](C)C(=O)N1C` [2a, [MeAla^3, MeLys(Me)^5, MeAla^6]-CbA] (NMe2Val-[dHiv][NMeA][NMeL][NMeLys(Me)][NMeA][NMeI]A[NMeL]Y(Me); lactam 4-C), for the setting “ratio of IC50 values to 1”, the “times less active than the natural product 1” value is “approximately 300 times”.

Regarding `CC[C@H](C)[C@H]1C(=O)N[C@@H](C)C(=O)N(C)[C@@H](CC(C)C)C(=O)N[C@@H](Cc2ccc(OC)cc2)C(=O)N(C)CCC[C@H](N(C)C(=O)[C@H](CC(C)C)N(C)C(=O)[C@H](C)N(C)C(=O)[C@H](OC(=O)[C@H](C(C)C)N(C)C)C(C)C)C(=O)N(C)[C@@H](C)C(=O)N1C` [2c], the IC50 stood at 9.6 ± 3.2 µM. Regarding `CC[C@H](C)[C@H]1C(=O)N[C@@H](C)C(=O)N(C)[C@@H](CC(C)C)C(=O)N[C@@H](Cc2ccc(OC)cc2)C(=O)N(C)CCC[C@@H](N(C)C(=O)[C@H](CC(C)C)N(C)C(=O)[C@H](C)N(C)C(=O)[C@H](OC(=O)[C@H](C(C)C)N(C)C)C(C)C)C(=O)N(C)[C@@H](C)C(=O)N1C` [2d], the IC50 was greater than 10 µM. As to `CC[C@H](C)[C@H]1C(=O)N[C@@H](C)C(=O)N(C)[C@@H](CC(C)C)C(=O)N[C@@H](Cc2ccc(OC)cc2)C(=O)NCCCC[C@H](N(C)C(=O)[C@H](CC(C)C)N(C)C(=O)[C@H](C)N(C)C(=O)[C@H](OC(=O)[C@H](C(C)C)N(C)C)C(C)C)C(=O)N(C)[C@@H](C)C(=O)N1C` [2e] (NMe2Val-[dHiv][NMeA][NMeL][NMeK][NMeA][NMeI]A[NMeL]Y(Me); lactam 4-C), the IC50 was 0.85 ± 0.02 µM. As to `CC[C@H](C)[C@H]1C(=O)N[C@@H](C)C(=O)N(C)[C@@H](CC(C)C)C(=O)N[C@@H](Cc2ccc(OC)cc2)C(=O)NCCCC[C@@H](N(C)C(=O)[C@H](CC(C)C)N(C)C(=O)[C@H](C)N(C)C(=O)[C@H](OC(=O)[C@H](C(C)C)N(C)C)C(C)C)C(=O)N(C)[C@@H](C)C(=O)N1C` [2f] (NMe2Val-[dHiv][NMeA][NMeL][dNMeK][NMeA][NMeI]A[NMeL]Y(Me); lactam 4-C), the IC50 was greater than 10 µM. In the case of `CC[C@H](C)[C@H]1C(=O)N[C@@H](C)C(=O)N(C)[C@@H](CC(C)C)C(=O)N[C@@H](Cc2ccc(OC)cc2)C(=O)NCCC[C@H](N(C)C(=O)[C@H](CC(C)C)N(C)C(=O)[C@H](C)N(C)C(=O)[C@H](OC(=O)[C@H](C(C)C)N(C)C)C(C)C)C(=O)N(C)[C@@H](C)C(=O)N1C` [2g] (NMe2Val-[dHiv][NMeA][NMeL][NMeOrn][NMeA][NMeI]A[NMeL]Y(Me); lactam 4-C), the IC50 is greater than 10 µM.

Regarding `CC[C@H](C)[C@H]1C(=O)N[C@@H](C)C(=O)N(C)[C@@H](CC(C)C)C(=O)N[C@@H](Cc2ccc(OC)cc2)C(=O)NCCC[C@@H](N(C)C(=O)[C@H](CC(C)C)N(C)C(=O)[C@H](C)N(C)C(=O)[C@H](OC(=O)[C@H](C(C)C)N(C)C)C(C)C)C(=O)N(C)[C@@H](C)C(=O)N1C` [2h] (NMe2Val-[dHiv][NMeA][NMeL][dNMeOrn][NMeA][NMeI]A[NMeL]Y(Me); lactam 4-C), the IC50 was greater than 10 µM.

With `CC[C@H](C)[C@H]1C(=O)N[C@@H](C)C(=O)N(C)[C@@H](CC(C)C)C(=O)N[C@@H](Cc2ccc(OC)cc2)C(=O)N(C)CCCC[C@H](N(C)C(=O)[C@H](CC(C)C)N(C)C(=O)[C@H](C)NC(=O)[C@H](OC(=O)[C@H](C(C)C)N(C)C)C(C)C)C(=O)N(C)[C@@H](C)C(=O)N1C` [8a] (NMe2Val-[dHiv]A[NMeL][NMeLys(Me)][NMeA][NMeI]A[NMeL]Y(Me); lactam 4-C), the IC50 came out at 2.2 ± 0.6 µM. The same measure, in the same setting: the value for `CC[C@H](C)[C@H]1C(=O)N[C@@H](C)C(=O)N(C)[C@@H](CC(C)C)C(=O)N[C@@H](Cc2ccc(OC)cc2)C(=O)N(C)CCCC[C@H](NC(=O)[C@H](CC(C)C)N(C)C(=O)[C@H](C)N(C)C(=O)[C@H](OC(=O)[C@H](C(C)C)N(C)C)C(C)C)C(=O)N(C)[C@@H](C)C(=O)N1C` [8c] (NMe2Val-[dHiv][NMeA][NMeL][Lys(Me)][NMeA][NMeI]A[NMeL]Y(Me); lactam 4-C) was 6.4 ± 1.7 µM.
